US11266712B2, “Antimicrobial peptides and methods of using the same” (Riptide Bioscience, Inc., priority 2018, dated 2022)

Legend:
S. aureus 29213 = experiment: Resistance development, 30 serial passages at sub-MIC; format: cell-based; details: after 30 days / 30 serial passages
Method: (§1) Sub-inhibitory concentrations of RP557, gentamicin and clindamycin were incubated with P. aeruginosa 27853 and S. aureus 29213 for 24 hours. Bacteria showing growth in the highest concentration were re-passaged in fresh dilutions containing sub-minimum inhibitory concentration (MIC) levels of each component for 30 consecutive passages.
as §1, with “FIG. 4A to 4B. […] Sub-inhibitory” for “Sub-inhibitory”, “passages; means are shown.” for “passages.”

C. albicans (ATCC 44858) = experiment: Rodent model of vulvovaginal candidiasis; format: in vivo; details: rat, oral fluconazole
Method: FIG. 8A to 8B indicates topical treatment of exemplary peptide RP557 reduces rodent vaginal candidiasis. Effects of RP557, miconazole and oral fluconazole in a C. albicans vaginal infection rodent model. On Day 0, rats were inoculated intravaginally with C. albicans. RP557 and miconazole were administered twice daily (FIG. 8A). A separate group received oral fluconazole (FIG. 8B). Further details are provided in the experimental section.
RP557 was effective in eradicating C. albicans in a rodent model of vulvovaginal candidiasis (FIG. 8A-8B).
FIG. 8A to 8B. RP557 topical treatment reduces rodent vaginal candidiasis. Effects of RP557, miconazole and oral fluconazole in the C. albicans (ATCC 44858) vaginal infection rodent model. On Day 0, rats were inoculated intravaginally (IVG) with C. albicans at 1.46×10^7 CFU/rat. RP557 and miconazole at 20 mg/mL were administered IVG at 0.1 mL/rat twice daily at 8 hr intervals starting from 48 hr after infection for 3 days. CPUs were evaluated on Day 5 with limit of detection (LOD) 0.7 CFU/rat. Significant difference, compared to vehicle, determined by one-way ANOVA followed by Dunnett's test (*p<0.05, ****p<0.0001). A separate group receiving oral fluconazole; *p<0.05 versus 0.1 and 10 mg/kg fluconazole.

P. aeruginosa 27853 = experiment: Resistance development, 30 serial passages at sub-MIC; format: cell-based; details: after 30 days / 30 serial passages
Method: as §1
as §1, with “FIG. 4A to 4B. […] Sub-inhibitory” for “Sub-inhibitory”, “passages; means are shown.” for “passages.”

## CCC[C@@H]1C[C@@H](C(=O)N[C@@H]([C@H]2O[C@H](SC)[C@H](O)[C@@H](O)[C@H]2O)[C@H](C)Cl)N(C)C1 [clindamycin]
S. aureus 29213
  growth at multiple of the MIC after 30 days: 256 times the minimum inhibitory concentration (MIC)

## OC(Cn1cncn1)(Cn1cncn1)c1ccc(F)cc1F [fluconazole]
C. albicans (ATCC 44858)
  activity on fungal counts: minimal activity

## gentamicin
P. aeruginosa 27853
  growth at multiple of the MIC after 30 days: 4096 times the minimum inhibitory concentration (MIC)
